Conditions: Liquid, Vibrating tube method

CCCCCCC(=O)OCC(COC(=O)CCCCCC)(COC(=O)CCCCCC)COC(=O)CCCCCC [pentaerythritol tetraheptanoate]
Conditions	mass density [kg/m3]
303.14 K, 15632 kPa	980.3
303.14 K, 15661 kPa	980.3
303.14 K, 15697 kPa	980.2
303.14 K, 15727 kPa	980.3
303.14 K, 15793 kPa	980.4
303.14 K, 15884 kPa	980.5
303.14 K, 15938 kPa	980.5
303.14 K, 16023 kPa	980.5
303.14 K, 16056 kPa	980.5
303.14 K, 16112 kPa	980.6
303.14 K, 16138 kPa	980.6
303.14 K, 16199 kPa	980.7
303.14 K, 16259 kPa	980.6
303.14 K, 16286 kPa	980.6
303.14 K, 16377 kPa	980.7
303.14 K, 16405 kPa	980.8
303.14 K, 16470 kPa	980.7
303.14 K, 16655 kPa	981
303.14 K, 16744 kPa	980.9
303.14 K, 16780 kPa	980.9
303.14 K, 16840 kPa	981
303.14 K, 16876 kPa	981
303.14 K, 17172 kPa	981.2
303.14 K, 17203 kPa	981.2
303.14 K, 17235 kPa	981.3
303.14 K, 17267 kPa	981.3
303.14 K, 17439 kPa	981.4
303.14 K, 17478 kPa	981.3
303.14 K, 17511 kPa	981.3
303.14 K, 17543 kPa	981.3
303.14 K, 17576 kPa	981.4
303.14 K, 17615 kPa	981.3
303.14 K, 17648 kPa	981.5
303.14 K, 17688 kPa	981.4
303.14 K, 17722 kPa	981.5
303.14 K, 18010 kPa	981.6
303.14 K, 18086 kPa	981.7
303.14 K, 18423 kPa	981.9
303.14 K, 18547 kPa	981.9
303.14 K, 18582 kPa	981.9
303.14 K, 18643 kPa	982
303.14 K, 18679 kPa	981.9
303.14 K, 18709 kPa	982
303.14 K, 18745 kPa	982.1
303.14 K, 18776 kPa	982
303.14 K, 18806 kPa	982
303.14 K, 18836 kPa	982.2
303.14 K, 18874 kPa	982.1
303.14 K, 18904 kPa	982.1
303.14 K, 19140 kPa	982.3
303.14 K, 19172 kPa	982.2
303.14 K, 19205 kPa	982.4
303.14 K, 19237 kPa	982.3
303.14 K, 19276 kPa	982.4
303.14 K, 19309 kPa	982.5
303.14 K, 19518 kPa	982.4
303.14 K, 19558 kPa	982.6
303.14 K, 19592 kPa	982.5
303.14 K, 19625 kPa	982.6
303.14 K, 19666 kPa	982.5
303.14 K, 19700 kPa	982.5
303.14 K, 19734 kPa	982.6
303.14 K, 19808 kPa	982.7
303.14 K, 19842 kPa	982.6
303.14 K, 19884 kPa	982.6
303.14 K, 20108 kPa	982.9
303.14 K, 20178 kPa	982.8
303.14 K, 20221 kPa	982.9
303.14 K, 20257 kPa	982.9
303.14 K, 20293 kPa	982.9
303.14 K, 20850 kPa	983.3
303.14 K, 20889 kPa	983.2
303.14 K, 21395 kPa	983.7
303.14 K, 21485 kPa	983.6
303.14 K, 21938 kPa	983.8
303.14 K, 21981 kPa	983.8
303.14 K, 22061 kPa	983.9
303.14 K, 22488 kPa	984.1
303.14 K, 22529 kPa	984.1
303.14 K, 22605 kPa	984.2
303.14 K, 22942 kPa	984.4
303.14 K, 22983 kPa	984.4
303.14 K, 23655 kPa	984.8
303.14 K, 23688 kPa	984.8
303.14 K, 23722 kPa	984.7
303.14 K, 23763 kPa	984.8
303.14 K, 24089 kPa	985
303.14 K, 24131 kPa	985.1
303.14 K, 24166 kPa	985.1
303.14 K, 24356 kPa	985.1
303.14 K, 28039 kPa	987.2
303.14 K, 29427 kPa	988
303.15 K, 11258 kPa	977.6
303.15 K, 11434 kPa	977.8
303.15 K, 11462 kPa	977.7
303.15 K, 11546 kPa	977.9
303.15 K, 11738 kPa	978
303.15 K, 13121 kPa	978.8
303.15 K, 13570 kPa	979
303.15 K, 13874 kPa	979.2
303.15 K, 13902 kPa	979.2
303.15 K, 13922 kPa	979.2
303.15 K, 13972 kPa	979.4
303.15 K, 14222 kPa	979.5
303.15 K, 14324 kPa	979.5
303.15 K, 14456 kPa	979.6
303.15 K, 14482 kPa	979.7
303.15 K, 14511 kPa	979.6
303.15 K, 14536 kPa	979.7
303.15 K, 14567 kPa	979.7
303.15 K, 14592 kPa	979.6
